# According to ChEMBL document CHEMBL1926681, “Novel inhibitors of epidermal growth factor receptor: (4-(Arylamino)-7H-pyrrolo[2,3-d]pyrimidin-6-yl)(1H-indol-2-yl)methanones and (1H-indol-2-yl)(4-(phenylamino)thieno[2,3-d]pyrimidin-6-yl)methanones” (Bioorg Med Chem, 2012):
# Calls of active or inactive are those of the source. The rule behind the calls is not given here.
# Key:
# [1] = target: Tyrosine-protein kinase ABL1 (Homo sapiens) (UniProt P00519); assay: Inhibition of ABL1 using poly(Ala, Glu, Lys, Tyr) as substrate and [gamma33P]ATP at 1 uM after 60 mins by scintillation counting
# Tyrosine-protein kinase ABL1 (Homo sapiens), sequence (P00519 whole entry): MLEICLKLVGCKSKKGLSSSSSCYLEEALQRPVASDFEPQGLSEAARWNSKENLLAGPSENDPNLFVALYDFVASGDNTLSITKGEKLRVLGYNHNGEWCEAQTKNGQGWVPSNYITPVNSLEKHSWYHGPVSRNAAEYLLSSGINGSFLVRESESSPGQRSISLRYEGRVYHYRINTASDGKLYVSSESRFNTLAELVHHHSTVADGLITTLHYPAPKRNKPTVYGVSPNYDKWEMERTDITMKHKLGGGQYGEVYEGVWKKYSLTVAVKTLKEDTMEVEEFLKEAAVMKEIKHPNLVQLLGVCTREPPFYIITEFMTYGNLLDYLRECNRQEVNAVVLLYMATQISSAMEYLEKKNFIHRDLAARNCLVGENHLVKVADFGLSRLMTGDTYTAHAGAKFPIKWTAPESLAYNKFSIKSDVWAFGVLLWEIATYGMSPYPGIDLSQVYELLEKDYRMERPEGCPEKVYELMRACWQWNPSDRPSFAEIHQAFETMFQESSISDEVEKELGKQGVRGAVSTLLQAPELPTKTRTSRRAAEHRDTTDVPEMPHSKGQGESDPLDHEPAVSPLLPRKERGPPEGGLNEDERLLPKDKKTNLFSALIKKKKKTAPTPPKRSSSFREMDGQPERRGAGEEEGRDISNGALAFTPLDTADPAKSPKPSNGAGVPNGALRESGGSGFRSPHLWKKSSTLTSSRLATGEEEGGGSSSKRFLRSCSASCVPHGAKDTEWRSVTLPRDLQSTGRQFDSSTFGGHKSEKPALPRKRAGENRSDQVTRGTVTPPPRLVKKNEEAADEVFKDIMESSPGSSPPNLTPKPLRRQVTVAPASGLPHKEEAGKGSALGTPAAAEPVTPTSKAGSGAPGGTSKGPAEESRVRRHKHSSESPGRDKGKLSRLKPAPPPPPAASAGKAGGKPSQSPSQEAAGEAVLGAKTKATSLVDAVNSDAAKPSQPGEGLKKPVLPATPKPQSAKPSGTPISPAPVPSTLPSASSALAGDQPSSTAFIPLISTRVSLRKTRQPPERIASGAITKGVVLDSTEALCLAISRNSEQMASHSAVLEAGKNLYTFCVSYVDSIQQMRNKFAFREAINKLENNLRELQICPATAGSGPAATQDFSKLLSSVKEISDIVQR
# [2] = target: Hepatocyte growth factor receptor (Homo sapiens) (UniProt P08581); assay: Inhibition of MET using poly(Ala, Glu, Lys, Tyr) as substrate and [gamma33P]ATP at 1 uM after 60 mins by scintillation counting
# Hepatocyte growth factor receptor (Homo sapiens), sequence (P08581 whole entry): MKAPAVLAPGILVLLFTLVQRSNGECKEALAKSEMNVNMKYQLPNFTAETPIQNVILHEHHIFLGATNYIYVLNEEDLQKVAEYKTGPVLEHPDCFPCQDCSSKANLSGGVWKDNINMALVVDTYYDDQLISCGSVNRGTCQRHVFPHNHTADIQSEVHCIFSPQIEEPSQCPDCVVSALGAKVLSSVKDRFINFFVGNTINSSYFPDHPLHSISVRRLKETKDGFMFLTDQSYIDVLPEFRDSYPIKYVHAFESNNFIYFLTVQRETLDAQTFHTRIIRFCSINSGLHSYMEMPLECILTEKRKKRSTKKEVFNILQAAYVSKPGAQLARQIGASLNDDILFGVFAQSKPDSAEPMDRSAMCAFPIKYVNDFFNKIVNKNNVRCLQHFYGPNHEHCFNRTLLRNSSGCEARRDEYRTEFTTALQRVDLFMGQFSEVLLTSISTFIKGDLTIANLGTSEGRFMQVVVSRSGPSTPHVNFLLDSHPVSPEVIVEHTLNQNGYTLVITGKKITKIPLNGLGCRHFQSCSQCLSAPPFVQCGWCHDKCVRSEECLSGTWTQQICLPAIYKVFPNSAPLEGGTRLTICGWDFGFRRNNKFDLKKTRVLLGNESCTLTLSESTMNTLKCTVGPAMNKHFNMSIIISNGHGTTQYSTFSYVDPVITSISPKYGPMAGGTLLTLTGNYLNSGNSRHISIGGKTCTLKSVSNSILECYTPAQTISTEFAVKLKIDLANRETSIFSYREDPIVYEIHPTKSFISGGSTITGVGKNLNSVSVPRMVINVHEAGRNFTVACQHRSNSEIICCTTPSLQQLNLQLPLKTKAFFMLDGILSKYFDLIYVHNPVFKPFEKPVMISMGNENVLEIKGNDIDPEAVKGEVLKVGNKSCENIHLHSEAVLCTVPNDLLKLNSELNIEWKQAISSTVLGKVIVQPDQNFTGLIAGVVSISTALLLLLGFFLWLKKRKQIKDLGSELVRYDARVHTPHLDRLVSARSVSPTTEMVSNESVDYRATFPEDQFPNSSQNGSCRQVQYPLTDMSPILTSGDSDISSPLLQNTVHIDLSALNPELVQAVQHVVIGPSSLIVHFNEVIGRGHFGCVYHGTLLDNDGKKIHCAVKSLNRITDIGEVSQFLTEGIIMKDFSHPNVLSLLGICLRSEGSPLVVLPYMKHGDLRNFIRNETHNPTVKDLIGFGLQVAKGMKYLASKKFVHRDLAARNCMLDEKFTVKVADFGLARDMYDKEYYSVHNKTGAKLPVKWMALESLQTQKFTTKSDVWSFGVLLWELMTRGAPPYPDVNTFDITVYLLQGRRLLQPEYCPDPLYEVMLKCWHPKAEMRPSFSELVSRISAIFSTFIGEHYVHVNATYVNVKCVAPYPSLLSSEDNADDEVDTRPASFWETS
# [3] = Cytotoxicity against human BXF 1218L cells after 4 days by propidium iodide staining-based fluorometric analysis; assay type: functional, cell-based; settings: 96 h
# [4] = Cytotoxicity against human BXF 1352L cells after 4 days by propidium iodide staining-based fluorometric analysis; assay type: functional, cell-based; settings: 96 h
# [5] = Cytotoxicity against human BXF T24 cells after 4 days by propidium iodide staining-based fluorometric analysis; assay type: functional, cell-based; settings: T-24, 96 h
# [6] = Cytotoxicity against human CXF 269L cells after 4 days by propidium iodide staining-based fluorometric analysis; assay type: functional, cell-based; settings: 96 h
# [7] = Cytotoxicity against human DIFI cells after 4 days by propidium iodide staining-based fluorometric analysis; assay type: functional, cell-based; settings: 96 h
# [8] = test system: HCT-116; assay: Cytotoxicity against human HCT116 cells after 4 days by propidium iodide staining-based fluorometric analysis; assay type: functional, cell-based; settings: HCT-116, 96 h
# [9] = test system: HT-29; assay: Cytotoxicity against human HT-29 cells after 4 days by propidium iodide staining-based fluorometric analysis; assay type: functional, cell-based; settings: HT-29, 96 h
# [10] = test system: RKO; assay: Cytotoxicity against human RKO cells after 4 days by propidium iodide staining-based fluorometric analysis; assay type: functional, cell-based; settings: 96 h
# [11] = Cytotoxicity against human GXF251L cells after 4 days by propidium iodide staining-based fluorometric analysis; assay type: functional, cell-based; settings: GXF 251L, 96 h
# [12] = test system: MKN-45; assay: Cytotoxicity against human MKN45 cells after 4 days by propidium iodide staining-based fluorometric analysis; assay type: functional, cell-based; settings: MKN-45, 96 h
# [13] = test system: CAL-27; assay: Cytotoxicity against human CAL27 cells after 4 days by propidium iodide staining-based fluorometric analysis; assay type: functional, cell-based; settings: CAL-27, 96 h
# [14] = Cytotoxicity against human LIXF 575L cells after 4 days by propidium iodide staining-based fluorometric analysis; assay type: functional, cell-based; settings: 96 h
# [15] = test system: NCI-H460; assay: Cytotoxicity against human H460 cells after 4 days by propidium iodide staining-based fluorometric analysis; assay type: functional, cell-based; settings: NCI-H460, 96 h
# [16] = Cytotoxicity against human LXFA 289L cells after 4 days by propidium iodide staining-based fluorometric analysis; assay type: functional, cell-based; settings: 96 h
# [17] = Cytotoxicity against human LXFA 526L cells after 4 days by propidium iodide staining-based fluorometric analysis; assay type: functional, cell-based; settings: 96 h
# [18] = Cytotoxicity against human LXFA 629L cells after 4 days by propidium iodide staining-based fluorometric analysis; assay type: functional, cell-based; settings: 96 h
# [19] = Cytotoxicity against human LXFL 1121L cells after 4 days by propidium iodide staining-based fluorometric analysis; assay type: functional, cell-based; settings: 96 h
# [20] = Cytotoxicity against human LXFL 529L cells after 4 days by propidium iodide staining-based fluorometric analysis; assay type: functional, cell-based; settings: 96 h
# [21] = Cytotoxicity against human MAXF 401NL cells after 4 days by propidium iodide staining-based fluorometric analysis; assay type: functional, cell-based; settings: 96 h
# [22] = test system: MCF7; assay: Cytotoxicity against human MCF7 cells after 4 days by propidium iodide staining-based fluorometric analysis; assay type: functional, cell-based; settings: MCF7, 96 h
# [23] = Cytotoxicity against human MDA231 cells after 4 days by propidium iodide staining-based fluorometric analysis; assay type: functional, cell-based; settings: MDA-MB-231, 96 h
# [24] = Cytotoxicity against human MEXF 1341L cells after 4 days by propidium iodide staining-based fluorometric analysis; assay type: functional, cell-based; settings: 96 h
# [25] = Cytotoxicity against human MEXF 276L cells after 4 days by propidium iodide staining-based fluorometric analysis; assay type: functional, cell-based; settings: MEXF276L, 96 h
# [26] = Cytotoxicity against human MEXF 462NL cells after 4 days by propidium iodide staining-based fluorometric analysis; assay type: functional, cell-based; settings: 96 h
# [27] = Cytotoxicity against human OVXF 899L cells after 4 days by propidium iodide staining-based fluorometric analysis; assay type: functional, cell-based; settings: 96 h
# [28] = test system: OVCAR-3; assay: Cytotoxicity against human OVCAR3 cells after 4 days by propidium iodide staining-based fluorometric analysis; assay type: functional, cell-based; settings: OVCAR-3, 96 h
# [29] = Cytotoxicity against human PAXF 1657L cells after 4 days by propidium iodide staining-based fluorometric analysis; assay type: functional, cell-based; settings: 96 h
# [30] = Cytotoxicity against human PAXF 546L cells after 4 days by propidium iodide staining-based fluorometric analysis; assay type: functional, cell-based; settings: 96 h
# [31] = test system: PANC-1; assay: Cytotoxicity against human PANC1 cells after 4 days by propidium iodide staining-based fluorometric analysis; assay type: functional, cell-based; settings: PANC-1, 96 h
# [32] = test system: CWR22R; assay: Cytotoxicity against human 22Rv1 cells after 4 days by propidium iodide staining-based fluorometric analysis; assay type: functional, cell-based; settings: 22Rv1, 96 h
# [33] = test system: DU-145; assay: Cytotoxicity against human DU145 cells after 4 days by propidium iodide staining-based fluorometric analysis; assay type: functional, cell-based; settings: DU-145, 96 h
# [34] = test system: LNCaP; assay: Cytotoxicity against human LNCAP cells after 4 days by propidium iodide staining-based fluorometric analysis; assay type: functional, cell-based; settings: 96 h
# [35] = Cytotoxicity against human PC3M cells after 4 days by propidium iodide staining-based fluorometric analysis; assay type: functional, cell-based; settings: PC-3M, 96 h
# [36] = Cytotoxicity against human PXF 1118L cells after 4 days by propidium iodide staining-based fluorometric analysis; assay type: functional, cell-based; settings: 96 h
# [37] = Cytotoxicity against human PXF 1752L cells after 4 days by propidium iodide staining-based fluorometric analysis; assay type: functional, cell-based; settings: 96 h
# [38] = Cytotoxicity against human PXF 698L cells after 4 days by propidium iodide staining-based fluorometric analysis; assay type: functional, cell-based; settings: 96 h
# [39] = Cytotoxicity against human RXF 1781L cells after 4 days by propidium iodide staining-based fluorometric analysis; assay type: functional, cell-based; settings: 96 h
# [40] = Cytotoxicity against human RXF 393NL cells after 4 days by propidium iodide staining-based fluorometric analysis; assay type: functional, cell-based; settings: 96 h
# [41] = Cytotoxicity against human RXF 486L cells after 4 days by propidium iodide staining-based fluorometric analysis; assay type: functional, cell-based; settings: 96 h
# [42] = test system: SAOS-2; assay: Cytotoxicity against human Saos2 cells after 4 days by propidium iodide staining-based fluorometric analysis; assay type: functional, cell-based; settings: SAOS-2, 96 h
# [43] = test system: TE-671; assay: Cytotoxicity against human TE671 cells after 4 days by propidium iodide staining-based fluorometric analysis; assay type: functional, cell-based; settings: TE-671, 96 h
# [44] = Cytotoxicity against human UXF 1138L cells after 4 days by propidium iodide staining-based fluorometric analysis; assay type: functional, cell-based; settings: 96 h
# [45] = target: T1, Epidermal growth factor receptor (Homo sapiens, UniProt P00533); assay: Inhibition of EGFR using poly(Glu,Tyr)4:1 as substrate and [gamma33P]ATP at 1 uM after 60 mins by scintillation counting
# T1 sequence (P00533 whole entry): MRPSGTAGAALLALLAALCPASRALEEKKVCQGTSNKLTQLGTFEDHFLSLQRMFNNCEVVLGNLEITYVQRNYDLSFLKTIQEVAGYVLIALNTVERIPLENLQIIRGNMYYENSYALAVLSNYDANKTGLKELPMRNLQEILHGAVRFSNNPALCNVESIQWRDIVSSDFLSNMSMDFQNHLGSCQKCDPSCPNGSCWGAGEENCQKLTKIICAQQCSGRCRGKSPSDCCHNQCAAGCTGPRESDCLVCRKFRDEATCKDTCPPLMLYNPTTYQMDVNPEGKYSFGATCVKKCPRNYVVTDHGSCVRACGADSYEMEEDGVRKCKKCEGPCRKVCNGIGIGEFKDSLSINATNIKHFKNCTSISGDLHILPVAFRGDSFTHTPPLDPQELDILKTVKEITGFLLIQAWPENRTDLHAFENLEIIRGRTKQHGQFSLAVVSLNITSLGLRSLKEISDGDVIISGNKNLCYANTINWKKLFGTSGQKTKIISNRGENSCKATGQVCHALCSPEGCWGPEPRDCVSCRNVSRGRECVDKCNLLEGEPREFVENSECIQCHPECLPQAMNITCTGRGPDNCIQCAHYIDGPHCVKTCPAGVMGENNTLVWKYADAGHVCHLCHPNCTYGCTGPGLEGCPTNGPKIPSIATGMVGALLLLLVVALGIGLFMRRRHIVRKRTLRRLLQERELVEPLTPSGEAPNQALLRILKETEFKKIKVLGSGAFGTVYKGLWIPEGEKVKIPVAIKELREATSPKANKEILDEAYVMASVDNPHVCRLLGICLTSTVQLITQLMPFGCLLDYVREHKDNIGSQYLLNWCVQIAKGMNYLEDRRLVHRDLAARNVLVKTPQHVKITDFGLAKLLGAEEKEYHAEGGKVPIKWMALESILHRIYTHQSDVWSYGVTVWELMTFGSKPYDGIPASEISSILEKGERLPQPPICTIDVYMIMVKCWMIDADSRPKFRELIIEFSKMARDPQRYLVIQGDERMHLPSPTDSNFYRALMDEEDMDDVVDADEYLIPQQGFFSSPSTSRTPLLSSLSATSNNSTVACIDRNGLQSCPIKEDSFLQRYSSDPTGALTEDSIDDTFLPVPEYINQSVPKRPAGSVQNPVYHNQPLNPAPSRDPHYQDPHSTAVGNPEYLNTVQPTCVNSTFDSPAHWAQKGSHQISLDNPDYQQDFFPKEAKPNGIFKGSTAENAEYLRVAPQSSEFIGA
# [46] = target: T1, Epidermal growth factor receptor; assay: Inhibition of EGFR using poly(Glu,Tyr)4:1 as substrate and [gamma33P]ATP after 60 mins by scintillation counting
# [47] = target: Receptor tyrosine-protein kinase erbB-2 (Homo sapiens) (UniProt P04626); assay: Inhibition of Erbb2 using poly(Glu,Tyr)4:1 as substrate and [gamma33P]ATP at 1 uM after 60 mins by scintillation counting
# [48] = target: Vascular endothelial growth factor receptor 2 (Homo sapiens) (UniProt P35968); assay: Inhibition of VEGFR2 using poly(Glu,Tyr)4:1 as substrate and [gamma33P]ATP at 1 uM after 60 mins by scintillation counting
# Vascular endothelial growth factor receptor 2 (Homo sapiens), sequence (P35968 whole entry): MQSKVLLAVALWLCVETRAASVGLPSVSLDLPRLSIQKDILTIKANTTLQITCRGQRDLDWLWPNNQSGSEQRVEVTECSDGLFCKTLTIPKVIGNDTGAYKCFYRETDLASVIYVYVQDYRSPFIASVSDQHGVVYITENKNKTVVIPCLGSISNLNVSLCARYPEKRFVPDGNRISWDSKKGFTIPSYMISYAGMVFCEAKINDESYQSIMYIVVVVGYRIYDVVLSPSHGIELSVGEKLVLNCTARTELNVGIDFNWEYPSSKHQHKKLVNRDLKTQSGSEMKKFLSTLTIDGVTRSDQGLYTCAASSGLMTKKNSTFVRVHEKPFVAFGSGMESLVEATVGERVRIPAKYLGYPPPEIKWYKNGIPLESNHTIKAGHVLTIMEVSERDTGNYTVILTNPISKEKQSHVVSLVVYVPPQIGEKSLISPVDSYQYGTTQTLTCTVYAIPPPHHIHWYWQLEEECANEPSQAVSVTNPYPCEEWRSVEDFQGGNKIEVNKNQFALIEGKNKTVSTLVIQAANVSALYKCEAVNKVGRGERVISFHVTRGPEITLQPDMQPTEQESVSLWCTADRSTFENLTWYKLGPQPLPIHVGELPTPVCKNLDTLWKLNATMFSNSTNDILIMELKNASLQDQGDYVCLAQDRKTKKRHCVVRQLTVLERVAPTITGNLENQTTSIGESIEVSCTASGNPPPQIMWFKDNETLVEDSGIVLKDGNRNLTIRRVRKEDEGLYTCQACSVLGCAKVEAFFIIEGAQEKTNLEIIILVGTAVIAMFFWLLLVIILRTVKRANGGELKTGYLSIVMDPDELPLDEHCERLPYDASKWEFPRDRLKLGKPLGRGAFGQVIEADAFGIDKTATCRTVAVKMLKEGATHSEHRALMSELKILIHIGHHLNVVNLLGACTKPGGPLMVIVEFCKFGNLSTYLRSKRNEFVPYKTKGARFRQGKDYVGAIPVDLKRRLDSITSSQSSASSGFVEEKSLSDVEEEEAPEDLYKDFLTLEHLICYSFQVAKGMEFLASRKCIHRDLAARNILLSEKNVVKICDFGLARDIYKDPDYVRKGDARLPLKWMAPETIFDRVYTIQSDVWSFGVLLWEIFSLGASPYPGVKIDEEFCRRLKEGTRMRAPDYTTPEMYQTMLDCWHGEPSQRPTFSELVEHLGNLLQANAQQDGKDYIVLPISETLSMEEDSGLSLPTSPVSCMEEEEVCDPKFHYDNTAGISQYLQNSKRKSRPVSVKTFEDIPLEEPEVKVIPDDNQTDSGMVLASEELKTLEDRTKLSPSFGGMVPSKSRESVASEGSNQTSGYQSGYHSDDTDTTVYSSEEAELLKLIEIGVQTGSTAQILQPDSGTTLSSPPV
structure (smiles),measurement,setting,value
C#Cc1cccc(Nc2ncnc3cc(OCCOC)c(OCCOC)cc23)c1 [ERLOTINIB],inhibition,[1],inactive
same,inhibition,[2],inactive
same,IC50,[3],96 µM
same,IC50,[4],87.8 µM
same,IC50,[5],13.9 µM
same,IC50,[6],16 µM
same,IC50,[7],140 nM
same,IC50,[8],65.8 µM
same,IC50,[9],100 µM
same,IC50,[10],100 µM
same,IC50,[11],369 nM
same,IC50,[12],76.7 µM
same,IC50,[13],239 nM
same,IC50,[14],47.2 µM
same,IC50,[15],74.3 µM
same,IC50,[16],1.78 µM
same,IC50,[17],100 µM
same,IC50,[18],0.66 µM
same,IC50,[19],34.6 µM
same,IC50,[20],17.4 µM
same,IC50,[21],25 µM
same,IC50,[22],100 µM
same,IC50,[23],34.5 µM
same,IC50,[24],30.1 µM
same,IC50,[25],18.6 µM
same,IC50,[26],100 µM
same,IC50,[27],8.77 µM
same,IC50,[28],100 µM
same,IC50,[29],64.3 µM
same,IC50,[30],10 µM
same,IC50,[31],75.8 µM
same,IC50,[32],100 µM
same,IC50,[33],0.966 µM
same,IC50,[34],6.63 µM
same,IC50,[35],17.2 µM
same,IC50,[36],76.7 µM
same,IC50,[37],31.6 µM
same,IC50,[38],36.4 µM
same,IC50,[39],76.7 µM
same,IC50,[40],45.6 µM
same,IC50,[41],10 µM
same,IC50,[42],21 µM
same,IC50,[43],100 µM
same,IC50,[44],24.5 µM
COc1ccc2[nH]c(C(=O)c3cc4c(Nc5ccc(F)c(Cl)c5)ncnc4s3)cc2c1,inhibition,[45],96%
same,IC50,[46],5.93 nM
same,inhibition,[47],60%
same,inhibition,[48],55%
same,inhibition,[1],inactive
same,inhibition,[2],inactive
same,IC50,[3],15.4 µM
same,IC50,[4],24.8 µM
same,IC50,[5],17.8 µM
same,IC50,[6],11.7 µM
same,IC50,[7],1000 nM
same,IC50,[8],12.1 µM
same,IC50,[9],9.8 µM
same,IC50,[10],15.8 µM
same,IC50,[11],3900 nM
same,IC50,[12],38.2 µM
same,IC50,[13],1600 nM
same,IC50,[14],9.3 µM
same,IC50,[15],15 µM
same,IC50,[16],7.1 µM
same,IC50,[17],28.5 µM
same,IC50,[18],5 µM
same,IC50,[19],9 µM
same,IC50,[20],14.8 µM
same,IC50,[21],4.2 µM
same,IC50,[22],11.3 µM
same,IC50,[23],17.1 µM
same,IC50,[24],14.4 µM
same,IC50,[25],31 µM
same,IC50,[26],16.7 µM
same,IC50,[27],19 µM
same,IC50,[28],24.6 µM
same,IC50,[29],24.6 µM
same,IC50,[30],14.1 µM
same,IC50,[31],28.4 µM
same,IC50,[32],11.1 µM
same,IC50,[33],19.4 µM
same,IC50,[34],32.5 µM
same,IC50,[35],46.3 µM
same,IC50,[36],62.9 µM
same,IC50,[37],36 µM
same,IC50,[38],26.7 µM
same,IC50,[39],30.4 µM
same,IC50,[40],21.1 µM
same,IC50,[41],10.2 µM
same,IC50,[42]; read-out: IC50,30.1 µM
same,IC50,[43],55 µM
same,IC50,[44],4.9 µM
O=C(c1cc2ccccc2[nH]1)c1cc2c(Nc3ccc(F)c(Cl)c3)ncnc2s1,inhibition,[45],100%
same,IC50,[46],5.54 nM
same,inhibition,[47],80%
same,inhibition,[48],15%
same,inhibition,[1],inactive
same,inhibition,[2],inactive
same,IC50,[3],9.13 µM
same,IC50,[4],11.3 µM
same,IC50,[5],11.4 µM
same,IC50,[6],10.8 µM
same,IC50,[7],1390 nM
same,IC50,[8],8.39 µM
same,IC50,[9],7.83 µM
same,IC50,[10],7.29 µM
same,IC50,[11],2760 nM
same,IC50,[12],12.5 µM
same,IC50,[13],2610 nM
same,IC50,[14],8.15 µM
same,IC50,[15],5.82 µM
same,IC50,[16],6.68 µM
same,IC50,[17],10.7 µM
same,IC50,[18],4.88 µM
same,IC50,[19],9.77 µM
same,IC50,[20],8.61 µM
same,IC50,[21],3.89 µM
same,IC50,[22],6.96 µM
same,IC50,[23],8.04 µM
same,IC50,[24],10.8 µM
same,IC50,[25],10.2 µM
same,IC50,[26],8.11 µM
same,IC50,[27],5.56 µM
same,IC50,[28],8.45 µM
same,IC50,[29],17.6 µM
same,IC50,[30],11.6 µM
same,IC50,[31],7.01 µM
same,IC50,[32],5.48 µM
same,IC50,[33],4.36 µM
same,IC50,[34],6.11 µM
same,IC50,[35],5.77 µM
same,IC50,[36],17.9 µM
same,IC50,[37],13.5 µM
same,IC50,[38],14.3 µM
same,IC50,[39],9.05 µM
same,IC50,[40],11.8 µM
same,IC50,[41],5.5 µM
same,IC50,[42]; read-out: IC50,11.4 µM
same,IC50,[43],14.1 µM
same,IC50,[44],4.42 µM
